Assays:
B16 melanoma = assay: Binary therapy DDP+GMDP-A in the B16 melanoma model; type: in vivo, BDF1 mice; details: for Tumor volume / tumor growth inhibition (TGI) / Average life time / ILT (increase of the animal life time) / Metastasis MF (tumor metastasis frequency) / Metastasis MI (metastasis inhibition rate): DDP, if given, single 4 mg/kg i.v.
Procedure: (§1) They were transplanted on the right-side surface of the animal body.
(§2) The animals with tumors were treated in test groups at the early (24 hours after tumor inoculation) and late (5 days after tumor inoculation) terms of the tumor growth using a single cytostatic injection intravenously in a dose equal to ½ or ¼ of therapeutic one and various schedules for GMDP-A injection: • Primary subcutaneous injection of GMDP-A modifier in a single dose 3.75 mg/kg; • Repeated protracted subcutaneous administration of GMDP-A modifier according to different schedules: 4-fold, 9-fold and 20-fold, once per day, in a single dose of 3.75 mg/kg (course dose is 18.75 mg/kg, 37.5 mg/kg and 78.75 mg/kg, correspondingly). Dosage frequency depends upon the model (histological form of transplanted tumor).
(§3) To identify efficiency of the claimed combined therapy, independent medication was carried out as a control after tumor inoculation using one component of binary therapy-cytostatic drug or a modifier. Cytostatic was injected intravenously in amount of ½ or ¼ of therapeutic dose once after 24 hours or 5 days after tumor inoculation; GMDP-A modifier was administered subcutaneously in a single dose of 3.75 mg/kg 5-fold from the 1st day to the 5th day or from the 5th day to the 9th day, or 10-fold from the 1st day to the 10th day or from the 5th day to the 14th day, or 21-fold from the 1st day to the 21st day after tumor inoculation.
(§4) Anti-tumor efficiency of the claimed combined therapy and comparative monotherapy using only a cytostatic or only GMDP-A modifier was assessed by the criteria commonly used in experimental oncology: tumor volume (TV), tumor growth inhibition (TGI), increase of the animal life time (ILT), tumor metastasis frequency (MF), metastasis inhibition rate (MI).
Efficiency of the combined therapy—chemotherapy with DDP cytostatic and biotherapy with GMDP-A was assessed on B16 melanoma model inoculated to BDF1 mice, females, subcutaneously on the right-side body surface.
1 mg/ml GMDP-A solution for subcutaneous injection was prepared by dissolving GMDP-A lyophilisate in water for injections.
GMDP-A was administered to mice subcutaneously as a single dose of 3.75 mg/kg every day with different schedules:
Five-fold (total dose is 18.75 mg/kg) on the 1st day to the 5th day or on the 5th day to the 9th day after tumor inoculation;
Ten-fold (total dose is 37.5 mg/kg) on the 1st day to the 10th day or on the 5th day to the 14th day after tumor inoculation;
DDP (Cisplatin, Cisplatin Teva trade mark, manufacturer is Teva Pharmaceutical Industries Ltd., Israel, fabricated at Pharmachemie B.V., the Netherlands) was administered intravenously as a single dose of 4 mg/kg (½ of therapeutic dose).

[1] = at assumed therapeutic dose and at its five-fold excess; cited from earlier work
[2] = test system: P388 lymphoplastic leukemia; assay: Combined therapy DDP+GMDP-A in the P388 lymphoplastic leukemia model; type: in vivo, mice BDF1; details: for Tumor volume / tumor growth inhibition (TGI) / Average life time / ILT (increase of the animal life time) / Metastasis MF (tumor metastasis frequency) / Metastasis MI (metastasis inhibition rate): DDP, if given, single 4 mg/kg i.v.
Procedure: as §1, §2, §3, §4
Efficiency of the combined therapy—chemotherapy with cisplatin cytostatic (DDP) and bioherapy with GMDP-A was assessed on P388 lymphoplastic leukemia model inoculated to mice BDF1, females, subcutaneously on the right-side body surface.
GMDP-A was administered to mice subcutaneously as a single dose of 3.75 mg/kg every day with different schedules: • Five-fold (total dose is 18.75 mg/kg) on the 1st day to the 5th day or on the 5th day to the 9th day after tumor inoculation; • Ten-fold (total dose is 37.5 mg/kg) on the 1st day to the 10th day or on the 5th day to the 14th day after tumor inoculation; • Twenty-one-fold (total dose is 78.75 mg/kg) on the 1st day to the 21st st day after tumor inoculation.
DDP (Cisplatin, Cisplatin Teva trade mark, manufacturer is Teva Pharmaceutical Industries Ltd., Israel, fabricated at Pharmachemie B.V., the Netherlands) was administered intravenously as a single dose ma 4 mg/kg (½ of therapeutic dose).

[3] = day 7, early start (1st day), 5-fold GMDP-A 3.75 mg/kg s.c.
[4] = day 7, early start (1st day), 10-fold GMDP-A 3.75 mg/kg s.c.
[5] = day 9, early start (1st day), 5-fold GMDP-A 3.75 mg/kg s.c.
[6] = day 9, early start (1st day), 10-fold GMDP-A 3.75 mg/kg s.c.
[7] = day 9, late start (5th day), 5-fold GMDP-A 3.75 mg/kg s.c.
[8] = day 9, late start (5th day), 10-fold GMDP-A 3.75 mg/kg s.c.
[9] = day 12, early start (1st day), 5-fold GMDP-A 3.75 mg/kg s.c.
[10] = day 12, early start (1st day), 10-fold GMDP-A 3.75 mg/kg s.c.
[11] = day 12, late start (5th day), 5-fold GMDP-A 3.75 mg/kg s.c.
[12] = day 12, late start (5th day), 10-fold GMDP-A 3.75 mg/kg s.c.
[13] = day 14, early start (1st day), 5-fold GMDP-A 3.75 mg/kg s.c.
[14] = day 14, early start (1st day), 10-fold GMDP-A 3.75 mg/kg s.c.
[15] = day 14, late start (5th day), 5-fold GMDP-A 3.75 mg/kg s.c.
[16] = day 14, late start (5th day), 10-fold GMDP-A 3.75 mg/kg s.c.
[17] = day 16, early start (1st day), 5-fold GMDP-A 3.75 mg/kg s.c.
[18] = day 16, early start (1st day), 10-fold GMDP-A 3.75 mg/kg s.c.
[19] = day 16, late start (5th day), 5-fold GMDP-A 3.75 mg/kg s.c.
[20] = day 16, late start (5th day), 10-fold GMDP-A 3.75 mg/kg s.c.
[21] = day 19, early start (1st day), 5-fold GMDP-A 3.75 mg/kg s.c.
[22] = day 19, early start (1st day), 10-fold GMDP-A 3.75 mg/kg s.c.
[23] = day 19, late start (5th day), 5-fold GMDP-A 3.75 mg/kg s.c.
[24] = day 19, late start (5th day), 10-fold GMDP-A 3.75 mg/kg s.c.
[25] = early start (1st day), 5-fold GMDP-A 3.75 mg/kg s.c.
[26] = early start (1st day), 10-fold GMDP-A 3.75 mg/kg s.c.
[27] = late start (5th day), 5-fold GMDP-A 3.75 mg/kg s.c.
[28] = late start (5th day), 10-fold GMDP-A 3.75 mg/kg s.c.
[29] = day 7, early start (1st day), 21-fold GMDP-A 3.75 mg/kg s.c.
[30] = day 7, late start (5th day), 5-fold GMDP-A 3.75 mg/kg s.c.
[31] = day 7, late start (5th day), 10-fold GMDP-A 3.75 mg/kg s.c.
[32] = day 9, early start (1st day), 21-fold GMDP-A 3.75 mg/kg s.c.
[33] = day 12, early start (1st day), 21-fold GMDP-A 3.75 mg/kg s.c.
[34] = day 14, early start (1st day), 21-fold GMDP-A 3.75 mg/kg s.c.
[35] = day 19, early start (1st day), 21-fold GMDP-A 3.75 mg/kg s.c.
[36] = early start (1st day), 21-fold GMDP-A 3.75 mg/kg s.c.

SMILES: CC(=O)NC1C(OC2C(CO)OC(O)C(NC(C)=O)C2OC(C)C(=O)NC(C)C(=O)NC(CCC(=O)O)C(=O)O)OC(CO)C(O)C1O [GMDP-A, N-acetyl-D-glucosaminyl-β-(1-4)-N-acetylmuramyl-L-alanyl-D-glutamic acid]
- Tumor volume (B16 melanoma; [3]): 11 ± 6 mm^3
- tumor growth inhibition (TGI) (B16 melanoma; [3]): 71%
- Tumor volume (B16 melanoma; [4]): 15 ± 6 mm^3
- tumor growth inhibition (TGI) (B16 melanoma; [4]): 62%
- Tumor volume (B16 melanoma; [5]): 58 ± 11 mm^3
- tumor growth inhibition (TGI) (B16 melanoma; [5]): 51%
- Tumor volume (B16 melanoma; [6]): 56 ± 9 mm^3
- tumor growth inhibition (TGI) (B16 melanoma; [6]): 52%
- Tumor volume (B16 melanoma; [7]): 61 ± 9 mm^3
- tumor growth inhibition (TGI) (B16 melanoma; [7]): 48%
- Tumor volume (B16 melanoma; [8]): 66 ± 14 mm^3
- tumor growth inhibition (TGI) (B16 melanoma; [8]): 44%
- Tumor volume (B16 melanoma; [9]): 177 ± 33 mm^3
- tumor growth inhibition (TGI) (B16 melanoma; [9]): 33%
- Tumor volume (B16 melanoma; [10]): 162 ± 21 mm^3
- tumor growth inhibition (TGI) (B16 melanoma; [10]): 38%
- Tumor volume (B16 melanoma; [11]): 173 ± 17 mm^3
- tumor growth inhibition (TGI) (B16 melanoma; [11]): 34%
- Tumor volume (B16 melanoma; [12]): 164 ± 29 mm^3
- tumor growth inhibition (TGI) (B16 melanoma; [12]): 37%
- Tumor volume (B16 melanoma; [13]): 347 ± 47 mm^3
- tumor growth inhibition (TGI) (B16 melanoma; [13]): 8%
- Tumor volume (B16 melanoma; [14]): 298 ± 44 mm^3
- tumor growth inhibition (TGI) (B16 melanoma; [14]): 21%
- Tumor volume (B16 melanoma; [15]): 329 ± 41 mm^3
- tumor growth inhibition (TGI) (B16 melanoma; [15]): 13%
- Tumor volume (B16 melanoma; [16]): 269 ± 62 mm^3
- tumor growth inhibition (TGI) (B16 melanoma; [16]): 29%
- Tumor volume (B16 melanoma; [17]): 522 ± 82 mm^3
- tumor growth inhibition (TGI) (B16 melanoma; [17]): 6%
- Tumor volume (B16 melanoma; [18]): 446 ± 53 mm^3
- tumor growth inhibition (TGI) (B16 melanoma; [18]): 20%
- Tumor volume (B16 melanoma; [19]): 391 ± 67 mm^3
- tumor growth inhibition (TGI) (B16 melanoma; [19]): 30%
- Tumor volume (B16 melanoma; [20]): 408 ± 79 mm^3
- tumor growth inhibition (TGI) (B16 melanoma; [20]): 27%
- Tumor volume (B16 melanoma; [21]): 690 ± 208 mm^3
- tumor growth inhibition (TGI) (B16 melanoma; [21]): 10%
- Tumor volume (B16 melanoma; [22]): 894 ± 99 mm^3
- tumor growth inhibition (TGI) (B16 melanoma; [22]): 16%
- Tumor volume (B16 melanoma; [23]): 817 ± 234 mm^3
- tumor growth inhibition (TGI) (B16 melanoma; [23]): 23%
- Tumor volume (B16 melanoma; [24]): 882 ± 238 mm^3
- tumor growth inhibition (TGI) (B16 melanoma; [24]): 17%
- Average life time (B16 melanoma; [25]): 21 ± 4 days
- ILT (increase of the animal life time) (B16 melanoma; [25]): 0%
- Metastasis MF (tumor metastasis frequency) (B16 melanoma; [25]): 80%
- Metastasis MI (metastasis inhibition rate) (B16 melanoma; [25]): 29%
- Average life time (B16 melanoma; [26]): 27 ± 4 days
- ILT (increase of the animal life time) (B16 melanoma; [26]): 29%
- Metastasis MF (tumor metastasis frequency) (B16 melanoma; [26]): 40%
- Metastasis MI (metastasis inhibition rate) (B16 melanoma; [26]): 81%
- efficiency for individual use (without chemotherapy) (B16 melanoma; example 2): did not reach a biologically significant level
- Average life time (B16 melanoma; [27]): 18 ± 3 days
- ILT (increase of the animal life time) (B16 melanoma; [27]): 0%
- Metastasis MF (tumor metastasis frequency) (B16 melanoma; [27]): 100%
- Metastasis MI (metastasis inhibition rate) (B16 melanoma; [27]): 5%
- Average life time (B16 melanoma; [28]): 24 ± 4 days
- ILT (increase of the animal life time) (B16 melanoma; [28]): 14%
- Metastasis MF (tumor metastasis frequency) (B16 melanoma; [28]): 100%
- Metastasis MI (metastasis inhibition rate) (B16 melanoma; [28]): 8%
- Toxic action (acute, chronic and specific toxicity) [1]: no toxic action
- Tumor volume [2, 3]: 45 ± 2 mm^3
- tumor growth inhibition (TGI) [2, 3]: 51%
- Tumor volume [2, 4]: 66.6 ± 6 mm^3
- tumor growth inhibition (TGI) [2, 4]: 37%
- Tumor volume [2, 29]: 73.5 ± 4.8 mm^3
- tumor growth inhibition (TGI) [2, 29]: 30%
- Tumor volume [2, 30]: 63 ± 12 mm^3
- tumor growth inhibition (TGI) [2, 30]: 31%
- Tumor volume [2, 31]: 86.5 ± 5.9 mm^3
- tumor growth inhibition (TGI) [2, 31]: 18%
- Tumor volume [2, 5]: 124 ± 7 mm^3
- tumor growth inhibition (TGI) [2, 5]: 36%
- Tumor volume [2, 6]: 108.6 ± 14.2 mm^3
- tumor growth inhibition (TGI) [2, 6]: 24%
- Tumor volume [2, 32]: 120.6 ± 12.5 mm^3
- tumor growth inhibition (TGI) [2, 32]: 16%
- Tumor volume [2, 7]: 107 ± 18 mm^3
- tumor growth inhibition (TGI) [2, 7]: 45%
- Tumor volume [2, 8]: 105 ± 9 mm^3
- tumor growth inhibition (TGI) [2, 8]: 26%
- Tumor volume [2, 9]: 204 ± 54 mm^3
- tumor growth inhibition (TGI) [2, 9]: 6%
- Tumor volume [2, 10]: 187.3 ± 27.4 mm^3
- tumor growth inhibition (TGI) [2, 10]: 4%
- Tumor volume [2, 33]: 159.0 ± 14.7 mm^3
- tumor growth inhibition (TGI) [2, 33]: 18%
- Tumor volume [2, 11]: 172 ± 51 mm^3
- tumor growth inhibition (TGI) [2, 11]: 21%
- Tumor volume [2, 12]: 163.8 ± 13.5 mm^3
- tumor growth inhibition (TGI) [2, 12]: 16%
- Tumor volume [2, 13]: 257 ± 24 mm^3
- tumor growth inhibition (TGI) [2, 13]: 16%
- Tumor volume [2, 14]: 245.3 ± 30.5 mm^3
- tumor growth inhibition (TGI) [2, 14]: 9%
- Tumor volume [2, 34]: 200.7 ± 17.3 mm^3
- tumor growth inhibition (TGI) [2, 34]: 25%
- Tumor volume [2, 15]: 257 ± 53 mm^3
- tumor growth inhibition (TGI) [2, 15]: 16%
- Tumor volume [2, 16]: 242.4 ± 18.3 mm^3
- tumor growth inhibition (TGI) [2, 16]: 10%
- Tumor volume [2, 21]: 318 ± 42 mm^3
- tumor growth inhibition (TGI) [2, 21]: 6%
- Tumor volume [2, 22]: 566.9 ± 50.2 mm^3
- tumor growth inhibition (TGI) [2, 22]: 11%
- Tumor volume [2, 35]: 432.1 ± 67.9 mm^3
- tumor growth inhibition (TGI) [2, 35]: 32%
- Tumor volume [2, 23]: 302 ± 103 mm^3
- tumor growth inhibition (TGI) [2, 23]: 11%
- Tumor volume [2, 24]: 510.1 ± 46.6 mm^3
- tumor growth inhibition (TGI) [2, 24]: 20%
- Average life time [2, 25]: 22 ± 1.2 days
- ILT (increase of the animal life time) [2, 25]: 21%
- Average life time [2, 26]: 24 ± 0.5 days
- ILT (increase of the animal life time) [2, 26]: 0%
- Metastasis MF (tumor metastasis frequency) [2, 26]: 100%
- Metastasis MI (metastasis inhibition rate) [2, 26]: 10%
- Average life time [2, 36]: 23 ± 1.6 days
- ILT (increase of the animal life time) [2, 36]: −4%
- Metastasis MF (tumor metastasis frequency) [2, 36]: 100%
- Metastasis MI (metastasis inhibition rate) [2, 36]: 22%
- efficiency for individual use (without chemotherapy) ([2]; example 1): did not reach a biologically significant level
- Average life time [2, 27]: 20 ± 0.9 days
- ILT (increase of the animal life time) [2, 27]: 7%
- Average life time [2, 28]: 24 ± 0.8 days
- ILT (increase of the animal life time) [2, 28]: 0%
- Metastasis MF (tumor metastasis frequency) [2, 28]: 100%
- Metastasis MI (metastasis inhibition rate) [2, 28]: 8%
